The values below come from US11192914B2, “Alkyne containing nucleotide and nucleoside therapeutic compositions and uses related thereto” (Emory University, priority 2016, dated 2021).

In general, EC50 refers to the concentration needed to bring the measured effect to its halfway point.

Test [1] deals with ZIKV. Description: ZIKV infectious (cytoprotection, XTT) assay. The test is classed as cell-based, Zika virus. The conditions noted are these: Zika virus, Vero, Cell Line Vero (Example 92); read-out: ZIKV EC50. On the procedure:
Vero cells were passaged in DMEM medium in T-75 flasks prior to use in the antiviral assay. On the day preceding the assay, the cells were split 1:2 to assure they were in exponential growth phase at the time of infection. The cells were resuspended at […] cells per well in tissue culture medium and added to flat bottom microtiter plates in a volume of […]. The plates were incubated at 37° C./5% CO2 overnight to allow for cell adherence. Separately, Zika virus was titrated in LLCMK2 cells to define the inoculum for use in the antiviral assay. Virus was diluted in DMEM medium such that the amount of virus added to each well in a volume of […] was the amount determined to achieve 85 to 95% cell killing at 5 days post-infection. Following incubation test plates were stained with XTT dye. XTT solution was prepared daily as a stock solution of 1 mg/mL in RPM11640. PMS solution was prepared at 0.15 mg/mL in PBS and stored in the dark at −20° C. XTT/PMS stock was prepared immediately before use by adding […] of PMS per mL of XTT solution. Fifty microliters of XTT/PMS was added to each well of the plate, and the plate was reincubated for 4 hours at 37° C. Plates were sealed with adhesive plate sealers ad shaken gently to mix the soluble formazan product, and the plate was read spectrophotometrically read 450/650 nm with a Molecular Devices Vmax plate reader. The raw data was collected from Softmax Pro and imported into a Microsoft Excel XLfit4 spreadsheet for analysis using four parameter curve fit calculations.
(In general: Tetrazolium assays rely on reduction of a dye to a coloured formazan, in cell work by metabolically active cells.)

In another test the test system is RSV. As to the kind of experiment: Antiviral assay RSV. The test is classed as cell-based. The settings on record: human respiratory syncytial virus, Huh-7, read-out: RSV EC50. The method, then:
Cell Preparation-HEp2 cells (human epithelial cells, ATCC catalog #CCL-23) were passaged in DMEM supplemented with 10% FBS, 2 mM L-glutamine, 100 U/mL penicillin, 100 μg/mL streptomycin 1 mM sodium pyruvate, and 0.1 mM NEAA, T-75 flasks prior to use in the antiviral assay. On the day preceding the assay, the cells were split 1:2 to assure they were in an exponential growth phase at the time of infection. Total cell and viability quantification was performed using a hemocytometer and Trypan Blue dye exclusion. Cell viability was greater than 95% for the cells to be utilized in the assay. The cells were resuspended at 1×10^4 cells per well in tissue culture medium and added to flat bottom microtiter plates in a volume of 100 μL. The plates were incubated at 37° C./5% CO2 overnight to allow for cell adherence. […] Virus was resuspended and diluted into assay medium (DMEM supplemented with 2% heat-inactivated FBS, 2 mM L-glutamine, 100 U/mL penicillin, 100 μg/mL streptomycin, 1 mM sodium pyruvate, and 0.1 mM NEAA) such that the amount of virus added to each well in a volume of 100 μL was the amount determined to yield 85 to 95% cell killing at 6 days post-infection. Efficacy and Toxicity XTT-Plates were stained and analyzed as previously described for the Dengue cytoprotection assay.

For test [2], the system named is ZIKV. As to the kind of experiment: ZIKV infectious (cytoprotection, XTT) assay. It counts as cell-based. The conditions noted are these: Zika virus, Huh-7, Cell Line Huh-7 (Example 92); read-out: ZIKV EC50.
The test system of the next test is DENV2 New Guinea C. Description: Anti-Dengue virus cytoprotection assay. The test is classed as cell-based, Dengue virus type 2. The method, then:
Cell Preparation—BHK21 cells (Syrian golden hamster kidney cells, ATCC catalog #CCL-I 0), Vero cells (African green monkey kidney cells, ATCC catalog #CCL-81), or Huh-7 cells (human hepatocyte carcinoma) were passaged in DMEM supplemented with 10% FBS, 2 mM L-glutamine, 100 U/mL penicillin, and 100 μg/mL streptomycin in T-75 flasks prior to use in the antiviral assay. On the day preceding the assay, the cells were split 1:2 to assure they were in an exponential growth phase at the time of infection. Total cell and viability quantification was performed using a hemocytometer and Trypan Blue dye exclusion. Cell viability was greater than 95% for the cells to be utilized in the assay. The cells were resuspended at 3×10^3 ([…] for Vero cells and Huh-7 cells) cells per well in tissue culture medium and added to flat bottom microtiter plates in a volume of 100 μL. The plates were incubated at 37° C./5% CO2 overnight to allow for cell adherence.
Virus Preparation—The Dengue virus type 2 New Guinea C strain was obtained from ATCC (catalog #VR-1584) and was grown in LLC-MK2 (Rhesus monkey kidney cells; catalog #CCL-7.1) cells for the production of stock virus pools. An aliquot of virus pretitered in BHK21 cells was removed from the freezer (−80° C.) and allowed to thaw slowly to room temperature in a biological safety cabinet. Virus was resuspended and diluted into assay medium (DMEM supplemented with 2% heat-inactivated FBS, 2 mM L-glutamine, 100 U/mL penicillin, and 100 μg/mL streptomycin) such that the amount of virus added to each well in a volume of 100 μL was the amount determined to yield 85 to 95% cell killing at 6 days post-infection.
Plate Format—Each plate contains cell control wells (cells only), virus control wells (cells plus virus), triplicate drug toxicity wells per compound (cells plus drug only), as well as triplicate experimental wells (drug plus cells plus virus).
Efficacy and Toxicity XTT-Following incubation at 37° C. in a 5% CO2 incubator, the test plates were stained with the tetrazolium dye XTT (2,3-bis(2-methoxy-4-nitro-5-sulfophenyl)-5-[(phenylamino)carbonyl]-2H-tetrazolium hydroxide). XTT-tetrazolium was metabolized by the mitochondrial enzymes of metabolically active cells to a soluble formazan product, allowing rapid quantitative analysis of the inhibition of virus-induced cell killing by antiviral test substances. XTT solution was prepared daily as a stock of 1 mg/mL in RPMI 1640. Phenazine methosulfate (PMS) solution was prepared at 0.15 mg/mL in PBS and stored in the dark at −20° C. XTT/PMS stock was prepared immediately before use by adding 40 μL of PMS per ml of XTT solution. Fifty microliters of XTT/PMS was added to each well of the plate and the plate was reincubated for 4 hours at 37° C. Plates were sealed with adhesive plate sealers and shaken gently or inverted several times to mix the soluble formazan product and the plate was read spectrophotometrically at 450/650 nm with a Molecular Devices Vmax plate reader.
Data Analysis —Raw data was collected from the Softmax Pro 4.6 software and imported into a Microsoft Excel spreadsheet for analysis. The percent reduction in viral cytopathic effect compared to the untreated virus controls was calculated for each compound. The percent cell control value was calculated for each compound comparing the drug treated uninfected cells to the uninfected cells in medium alone.

For the next test, the system named is HRV. As to the kind of experiment: Antiviral assay HRV. It counts as cell-based. The conditions noted are these: HeLa, read-out: HRV EC50.

Where two headings read alike, the source gives them in different places.

For the compound `C#CC1(O)C(O)[C@@H](COP(=O)(OCOC(=O)C(C)(C)C)OCOC(=O)C(C)(C)C)O[C@H]1n1ccc(=O)[nH]c1=O` (stereo partly shown) [EIDD-02290], the EC50 in the test on ZIKV [1] is 1.06 µM; with RSV it was 90 µM; in the test with ZIKV [2] it was 0.31 µM; in the test on DENV2 New Guinea C (DENV2, Huh-7, read-out: DENV2 EC50), 0.24 µM; with DENV2 New Guinea C (DENV2, Vero, read-out: DENV2 EC50), 7.56 µM; in the test with DENV2 New Guinea C (DENV2, read-out: DENV2 EC50) it was 7.76 µM. For the same compound, the EC50 in the test with HRV was determined as 0.05 µM.
